Assay results taken from article PMC9570109, “Improved Trimethylangelicin Analogs for Cystic Fibrosis: Design, Synthesis and Preliminary Screening” (International Journal of Molecular Sciences, 2022).

Key:
HepG2 cells = experiment: Cytotoxicity MTT assay on HepG2 cells; conditions: HepG2, 24 h, highest concentration tested (50 μM)
Procedure: The potential toxicity of TMA analogs on hepatic tissue was assessed by evaluating the viability of HepG2 cells (ATCC, HB-8065) using the MTT assay, as previously reported [22]. Cells were maintained in DMEM complete medium (10% FBS, 1% l-glutamine and 1% PEN-STREP) and seeded in a 96-well plate (5 × 10^4 cells/mL). They were treated for 24 h with TMA analogs (concentration range from 3.125 μM to 50 μM). At the end of the treatment, cells were washed and an MTT solution (0.5 mg/mL in complete medium) was added to each well and incubated for 4 h at 37 °C. The solution was discarded, and the produced blue formazan crystals were dissolved with acidified isopropanol (2% HCl). Absorbance was measured at 570 nm using a multiplate reader (Victor Nivo, Perkin Elmer). The percentage of viable cells was calculated considering untreated cells as control.
The data shown in this figure are the results of three independent experiments, each
performed in quadruplicate.

[1] = system: Salmonella typhimurium mutant TA97A, TA98, TA100, and TA1535 strains; experiment: Ames test, overall result on all strains; type: cell-based; conditions: all concentrations, with and without S9 mix
Procedure: To investigate whether changes in the structure of TMA abolish the mutagenic effect observed with this class of compounds, the most promising TMA analogs were evaluated by the Ames test. Compounds 4-PhDMA and pANDMA were tested for genotoxicity evaluation using the histidine-requiring Salmonella typhimurium mutant TA97A, TA98, TA100, and TA1535 strains that allow checking frameshift mutation and base pair substitution, with and without metabolic activation induced by S9 Mix.
The number of spontaneous revertants is relatively constant, but it dramatically increases—generally in a dose-dependent way—when a mutagen is added to the plate. […]
The mutagenicity assay was performed for the test compounds following the plate incorporation method with the histidine-requiring Salmonella typhimurium mutant TA97A, TA98, TA100, and TA1535 strains purchased by Molecular Toxicology Inc. (Boone, NC, USA; moltox.com). […] The plates were incubated at 37 °C for 72 h and then his+ revertants were checked and counted using a Colony Counter 560 Suntex (Antibioticos, Italy). […] Statistical analysis: relative standard deviations were calculated using the statistical software STATISTICA 6.0 (StatSoft, Italia srl, Vigonza, Italy).

[2] = In vivo oral pharmacokinetics in mice; conditions: c57BL/6 male mice; for AUC 0-inf / CL/F / Cmax / Tmax / t1/2: 20 mg/kg gavage, in water; for oral bioavailability: water as vehicle
Procedure: The main pharmacokinetic parameters of 4-PhDMA, pANDMA, and pANDMA mesylate were evaluated in c57BL/6 male mice, using water as dispersing vehicle.
All experimental procedures involving animals were conducted in accordance with the 3R principle to minimize their pain and discomfort. […] For the PK analysis, C57Bl6 male mice (n = 3 per time point) were gavaged with selected compounds (20 mg/kg), suspended in water, or dissolved in SEDDS formulations, after an overnight fast. […] 8.0 software (GraphPad Software Inc., San Diego, CA, USA), when appropriate. If not otherwise stated, the PK data are expressed as mean ± SD. p < 0.05 was considered statistically significant.
The TMA analogs were extracted and analyzed from mouse plasma as already reported. Briefly, 100 µL of plasma were treated with 300 µL of cold acetonitrile spiked with 80 nM of internal standard (IS, 6,4′-dimethylangelicin), and then the samples were centrifuged for 10 min at 12,000× g (Hettich Mikro 120 Benchtop Centrifuge) and 25 °C. Ten microliters of the supernatant were injected into the UHPLC system.
The analytical column was a Kinetex 2.6 μm C18 Polar, 100 A, 100 × 2.1 mm (Phenomenex, Bologna, Italy), thermostated at 30 °C. The mobile phase components A and B were water and methanol, respectively, both containing 10 mM ammonium formate. The eluent flow rate was 0.25 mL/min. […] MS data were analyzed using the Mass Hunter Qualitative Analysis software (Agilent Technologies, Palo Alto, CA, USA).
Chromatographic peaks of the TMA analog were identified and integrated by considering the Extracted Ion Chromatogram (EIC) of the [M+H]^+ species selected with a window of 5 ppm and normalized by the IS. Quantification of TMA analogs was carried out by external calibration of normalized signals using a seven-point calibration curve obtained by spiking blank plasma with each TMA analog in the range of 20–3000 nM.

Cc1cc2c(-c3ccccc3)cc(=O)oc2c2c(C)coc12 [4-PhDMA]
cell viability (HepG2 cells): greater than 75%
genotoxic activity (Ames test) [1]: non-genotoxic
AUC 0-inf [2]: 2.74736 ± 0.51361 µM·h
CL/F [2]: 0.0014 ± 0.0014 mL/h/g
Cmax [2]: 222 ± 184 nM
Tmax [2]: 1.25 ± 1.06 h
t1/2 [2]: 21.13 ± 0.98 h
oral bioavailability [2]: very low

Cc1cc(=O)oc2c1cc(-c1ccc(N)cc1)c1occ(C)c12 [pANDMA]
cell viability (HepG2 cells): greater than 75%
genotoxic activity (Ames test) [1]: non-genotoxic
AUC 0-inf [2]: 2.4054 ± 0.2082 µM·h
CL/F [2]: 0.0083 ± 0.0007 mL/h/g
Tmax [2]: 0.5 ± 0 h
t1/2 [2]: 1.91 ± 0.71 h
Cmax ([2]; 20 mg/kg): 1520 ± 261 nM
oral bioavailability [2]: very low
